Measurements: ChEMBL document CHEMBL2390874, “Synthesis, antibacterial activity and cytotoxicity of new fused pyrazolo[1,5-a]pyrimidine and pyrazolo[5,1-c][1,2,4]triazine derivatives from new 5-aminopyrazoles” (Eur J Med Chem, 2013)
Values after ≈ are worked out from the molar mass of the structure shown. Active and inactive are the calls of the source. No cut-off for these calls is given here.

Columns and labels:
Escherichia coli [1] = assay: Antibacterial activity against Escherichia coli ATCC 10536 assessed as growth inhibition by broth dilution method; type: functional
Pseudomonas aeruginosa [2] = assay: Bactericidal activity against Pseudomonas aeruginosa ATCC 10145 by broth dilution method; type: functional
Staphylococcus aureus [3] = assay: Antibacterial activity against methicillin-resistant Staphylococcus aureus ATCC 43300 assessed as growth inhibition at 1 mg/ml after 24 hrs by agar diffusion method; type: functional, organism-based
Escherichia coli [4] = assay: Bactericidal activity against Escherichia coli ATCC 10536 by broth dilution method; type: functional
[5] = Selectivity index, ratio of CC50 for african green monkey vero cells to MIC for Serratia marcescens ATCC 13880; type: functional
Bacillus subtilis [6] = assay: Antibacterial activity against Bacillus subtilis ATCC 11774 assessed as growth inhibition by broth dilution method; type: functional
Staphylococcus aureus [7] = assay: Bactericidal activity against Staphylococcus aureus ATCC 25923 by broth dilution method; type: functional
Serratia marcescens [8] = assay: Antibacterial activity against Serratia marcescens ATCC 13880 assessed as growth inhibition by broth dilution method; type: functional
Staphylococcus aureus [9] = assay: Antibacterial activity against Staphylococcus aureus ATCC 25923 assessed as growth inhibition at 1 mg/ml after 24 hrs by agar diffusion method; type: functional; conditions: ATCC 25923, 24 h, read-out: DIZ
[10] = Selectivity index, ratio of CC50 for african green monkey vero cells to MIC for Escherichia coli ATCC 10536; type: functional
Bacillus subtilis [11] = assay: Bactericidal activity against Bacillus subtilis ATCC 11774 by broth dilution method; type: functional
Staphylococcus aureus [12] = assay: Antibacterial activity against Staphylococcus aureus ATCC 25923 assessed as growth inhibition by broth dilution method; type: functional
[13] = Selectivity index, ratio of CC50 for african green monkey vero cells to MIC for Bacillus subtilis ATCC 11774; type: functional
Pseudomonas aeruginosa [14] = assay: Antibacterial activity against Pseudomonas aeruginosa ATCC 10145 assessed as growth inhibition by broth dilution method; type: functional
Enterococcus faecalis = assay: Antibacterial activity against Enterococcus faecalis ATCC 14506 assessed as growth inhibition at 1 mg/ml after 24 hrs by agar diffusion method; type: functional, organism-based
Pseudomonas aeruginosa [15] = assay: Antibacterial activity against Pseudomonas aeruginosa ATCC 10145 assessed as growth inhibition at 1 mg/ml after 24 hrs by agar diffusion method; type: functional; conditions: ATCC 10145, 24 h, read-out: DIZ
[16] = system: Staphylococcus epidermidis; assay: Antibacterial activity against Staphylococcus epidermidis ATCC 12228 assessed as growth inhibition at 1 mg/ml after 24 hrs by agar diffusion method; type: functional, organism-based
Bacillus subtilis [17] = assay: Antibacterial activity against Bacillus subtilis ATCC 11774 assessed as growth inhibition at 1 mg/ml after 24 hrs by agar diffusion method; type: functional; conditions: ATCC 11774, 24 h, read-out: DIZ
Serratia marcescens [18] = assay: Antibacterial activity against Serratia marcescens ATCC 13880 assessed as growth inhibition at 1 mg/ml after 24 hrs by agar diffusion method; type: functional; conditions: ATCC 13880, 24 h, read-out: DIZ
Salmonella typhimurium = assay: Antibacterial activity against Salmonella typhimurium ATCC 51812 assessed as growth inhibition at 1 mg/ml after 24 hrs by agar diffusion method; type: functional, organism-based; conditions: Salmonella enterica subsp. enterica serovar Typhimurium
Serratia marcescens [19] = assay: Bactericidal activity against Serratia marcescens ATCC 13880 by broth dilution method; type: functional
[20] = Selectivity index, ratio of CC50 for african green monkey vero cells to MIC for Pseudomonas aeruginosa ATCC 10145; type: functional
Escherichia coli [21] = assay: Antibacterial activity against Escherichia coli ATCC 10536 assessed as growth inhibition at 1 mg/ml after 24 hrs by agar diffusion method; type: functional; conditions: ATCC 10536, 24 h, read-out: DIZ
[22] = Selectivity index, ratio of CC50 for african green monkey vero cells to MIC for Staphylococcus aureus ATCC 25923; type: functional
[23] = Cytotoxicity against african green monkey vero cells by MTT assay; type: cell-based; conditions: chlorocebus sabaeus
Serratia marcescens [24] = assay: Antibacterial activity against Serratia marcescens ATCC 13880 assessed as growth inhibition at 10 ug after 24 hrs by agar diffusion method; type: functional; conditions: ATCC 13880, 24 h, read-out: DIZ
Pseudomonas aeruginosa [25] = assay: Antibacterial activity against Pseudomonas aeruginosa ATCC 10145 assessed as growth inhibition at 10 ug after 24 hrs by agar diffusion method; type: functional; conditions: ATCC 10145, 24 h, read-out: DIZ
Escherichia coli [26] = assay: Antibacterial activity against Escherichia coli ATCC 10536 assessed as growth inhibition at 10 ug after 24 hrs by agar diffusion method; type: functional; conditions: ATCC 10536, 24 h, read-out: DIZ
Staphylococcus aureus [27] = assay: Antibacterial activity against Staphylococcus aureus ATCC 25923 assessed as growth inhibition after 24 hrs by agar diffusion method; type: functional
Bacillus subtilis [28] = assay: Antibacterial activity against Bacillus subtilis ATCC 11774 assessed as growth inhibition after 24 hrs by agar diffusion method; type: functional

Structure (SMILES) | MIC (Escherichia coli [1]) [mg/mL] | MBC (Pseudomonas aeruginosa [2]) [mg/mL] | growth inhibition (GI) (Staphylococcus aureus [3]) | MBC (Escherichia coli [4]) [mg/mL] | MIC (Bacillus subtilis [6]) [mg/mL] | MBC (Staphylococcus aureus [7]) [mg/mL] | zone of inhibition at 1000 µg/mL (Staphylococcus aureus [9]) [mm] | Selectivity Index [10] | MBC (Bacillus subtilis [11]) [mg/mL] | MIC (Staphylococcus aureus [12]) [mg/mL] | Selectivity Index [13] | growth inhibition (GI) (Enterococcus faecalis) | zone of inhibition at 1000 µg/mL (Pseudomonas aeruginosa [15]) [mm] | growth inhibition (GI) [16] | zone of inhibition at 1000 µg/mL (Bacillus subtilis [17]) [mm] | zone of inhibition at 1000 µg/mL (Serratia marcescens [18]) [mm] | growth inhibition (GI) (Salmonella typhimurium) | zone of inhibition at 1000 µg/mL (Escherichia coli [21]) [mm] | Selectivity Index [22] | CC50 [23] [mg/mL] | other results
CSc1c(C#N)c(N)nc2c(C#N)c(N3CCCCC3)nn12 | 16 (≈ 51.1 mM) | 16 (≈ 51.1 mM) | inactive | 16 (≈ 51.1 mM) | 16 (≈ 51.1 mM) | 16 (≈ 51.1 mM) | 11 | 0.11 | 16 (≈ 51.1 mM) | 16 (≈ 51.1 mM) | 0.11 | inactive | 7 | inactive | 10 | 7 | inactive | 10 | 0.11 | 1.75 (≈ 5.58 mM) | Selectivity Index [5]: 0.11; MIC (Serratia marcescens [8]): 16 mg/mL (≈ 51.1 mM); MIC (Pseudomonas aeruginosa [14]): 8 mg/mL (≈ 25.5 mM); MBC (Serratia marcescens [19]): 16 mg/mL (≈ 51.1 mM); Selectivity Index [20]: 0.22
CN[C@@H]1[C@H](O[C@H]2[C@H](O[C@H]3[C@H](O)[C@@H](O)[C@H](N=C(N)N)[C@@H](O)[C@@H]3N=C(N)N)O[C@@H](C)[C@]2(O)C=O)O[C@@H](CO)[C@H](O)[C@H]1O [STREPTOMYCIN] |  |  |  |  |  |  |  |  |  |  |  |  |  |  |  |  |  |  |  |  | zone of inhibition at 10 µg/disc (Serratia marcescens [24]): 20 mm; zone of inhibition at 10 µg/disc (Pseudomonas aeruginosa [25]): 14 mm; zone of inhibition at 10 µg/disc (Escherichia coli [26]): 13 mm
N#Cc1c(N2CCCCC2)n[nH]c1N | 4 (≈ 20.9 mM) | 8 (≈ 41.8 mM) | inactive | 8 (≈ 41.8 mM) | 4 (≈ 20.9 mM) | 16 (≈ 83.7 mM) | 15 | 0.14 | 8 (≈ 41.8 mM) | 16 (≈ 83.7 mM) | 0.14 | inactive | 7 | inactive | 9 | 6 | inactive | 15 | 0.14 | 0.55 (≈ 2.88 mM) | Selectivity Index [5]: 0.28; MIC (Serratia marcescens [8]): 2 mg/mL (≈ 10.5 mM); MIC (Pseudomonas aeruginosa [14]): 8 mg/mL (≈ 41.8 mM); MBC (Serratia marcescens [19]): 4 mg/mL (≈ 20.9 mM); Selectivity Index [20]: 0.07
N#Cc1c(N2CCOCC2)n[nH]c1N | 8 (≈ 41.4 mM) | 16 (≈ 82.8 mM) | inactive | 16 (≈ 82.8 mM) | 16 (≈ 82.8 mM) | > 16 | 11 | 0.29 | 16 (≈ 82.8 mM) | 16 (≈ 82.8 mM) | 0.15 | inactive | 7 | inactive | 6 | 6 | inactive | 11 | 0.29 | 2.34 (≈ 12.1 mM) | Selectivity Index [5]: 0.29; MIC (Serratia marcescens [8]): 8 mg/mL (≈ 41.4 mM); MIC (Pseudomonas aeruginosa [14]): 8 mg/mL (≈ 41.4 mM); MBC (Serratia marcescens [19]): 8 mg/mL (≈ 41.4 mM); Selectivity Index [20]: 0.29
Cc1cc(C)n2nc(N3CCCCC3)c(C#N)c2n1 | 16 (≈ 62.7 mM) |  | inactive | 16 (≈ 62.7 mM) | 16 (≈ 62.7 mM) | 16 (≈ 62.7 mM) | 12 | 0.08 | 16 (≈ 62.7 mM) | 16 (≈ 62.7 mM) | 0.08 | inactive | 6 | inactive | 10 | 7 | inactive | 11 | 0.08 | 1.25 (≈ 4.9 mM) | Selectivity Index [5]: 0.08; MIC (Serratia marcescens [8]): 16 mg/mL (≈ 62.7 mM); MBC (Serratia marcescens [19]): 16 mg/mL (≈ 62.7 mM)
O=C(N[C@H](CO)[C@H](O)c1ccc([N+](=O)[O-])cc1)C(Cl)Cl [CHLORAMPHENICOL] |  |  |  |  |  |  |  |  |  |  |  |  |  |  |  |  |  |  |  |  | diameter of the inhibition zone (DIZ) (Staphylococcus aureus [27]): 25 mm; diameter of the inhibition zone (DIZ) (Bacillus subtilis [28]): 25 mm
N#Cc1c(N2CCCC2)n[nH]c1N | 8 (≈ 45.1 mM) | 16 (≈ 90.3 mM) | inactive | 16 (≈ 90.3 mM) | 8 (≈ 45.1 mM) | 16 (≈ 90.3 mM) | 10 | 0.31 | 8 (≈ 45.1 mM) | 16 (≈ 90.3 mM) | 0.31 | inactive | 7 | inactive | 9 | 7 | inactive | 9 | 0.31 | 2.5 (≈ 14.1 mM) | Selectivity Index [5]: 0.31; MIC (Serratia marcescens [8]): 8 mg/mL (≈ 45.1 mM); MIC (Pseudomonas aeruginosa [14]): 8 mg/mL (≈ 45.1 mM); MBC (Serratia marcescens [19]): 8 mg/mL (≈ 45.1 mM); Selectivity Index [20]: 0.31
N#Cc1nnc2c(C#N)c(N3CCCCC3)nn2c1N | 16 (≈ 59.6 mM) | 16 (≈ 59.6 mM) | inactive | 16 (≈ 59.6 mM) | 16 (≈ 59.6 mM) | 16 (≈ 59.6 mM) | 11 | 0.09 | 16 (≈ 59.6 mM) | 16 (≈ 59.6 mM) | 0.09 | inactive | 7 | inactive | 11 | 6 | inactive | 10 | 0.09 | 1.4 (≈ 5.22 mM) | MIC (Pseudomonas aeruginosa [14]): 16 mg/mL (≈ 59.6 mM); Selectivity Index [20]: 0.09
